Source: patent publication US20030162777A1, “Novel N-acylated heterocycles” (Recordati S.A., priority 2001, published 2003)
Where two headings read alike, the source gives them in different places.

Legend:
anaesthetised rats = assay: Effects on rhythmic bladder-voiding contractions induced by bladder filling in anaesthetised rats; format: in vivo, rat; details: for ED50: Rattus norvegicus
Description: Female Sprague-Dawley rats weighing 225-275 g (Crl: CDo Br, Charles River Italia) were used. The animals were housed with free access to food and water and maintained on a forced 12-hour alternating light-dark cycle at 22-24° C. for at least one week, except during the experiment. The activity on rhythmic bladder voiding contractions was evaluated according to the method of Dray (Dray J., Pharmacol. Methods, 13:157, 1985), with some modifications as in Guarneri (Guarneri, Pharmacol. Res. 27:173, 1993). Briefly, the rats were anaesthetised by subcutaneous injection of 1.25 g/kg (5 ml/kg) urethane, after which the urinary bladder was catheterised via the urethra using PE 50 polyethylene tubing filled with physiological saline. The catheter was tied in place with a ligature around the external urethral orifice and was connected to conventional pressure transducers (Statham P23 ID/P23 XL). […] The bladder was then filled via the recording catheter by incremental volumes of warm (37° C.) saline until reflex bladder-voiding contractions occurred (usually 0.8-1.5 ml). For intravenous injection of bioactive compounds, PE 50 polyethylene tubing filled with physiological saline was inserted into the jugular vein.
From the cystometrogram, the number of contractions recorded 15 minutes before (basal values) and after treatment, as well as the mean amplitude of these contractions (mean height of the peaks in mmHg), was evaluated.
Since most compounds produced an effect that was relatively rapid in onset and led to a complete cessation of bladder contractions, bioactivity was conveniently estimated by measuring the duration of bladder quiescence (i.e. the length of the time during which no contractions occurred). The number of tested animals showing a reduction in the number of contractions higher than 30% of that observed in the basal period was recorded too.
The extrapolated doses which induced a reduction in the number of contractions greater than 30% in 50% of the treated rats (ED50) were evaluated by the method of Bliss (Bliss C. I., Quart J. Pharm. Pharmacol. 11, 192-216, 1938).

conscious rats = assay: Effect on cystometric parameters in conscious rats after oral administration; format: in vivo, rat; details: 3 mg/kg p.o., 1-5 h after treatment, versus vehicle
Description: Male Sprague-Dawley rats [Crl: CD° (SD) BR] of 300-400 g supplied by Charles River Italia were used. The animals were housed with free access to food and water and maintained on a forced 12-hour-light/12-hour-dark cycle at 22-24° C. of temperature, except during the experiment. To quantify urodynamic parameters in conscious rats, cystometrographic studies were performed according to the procedure previously reported (Guarneri et al., Pharmacol. Res. 24: 175, 1991).
Briefly, the rats were anaesthetised by intraperitoneal administration of 3 ml/kg of Equithensin solution (pentobarbital 30 mg/kg and chloral hydrate 125 mg/kg) and placed in a supine position. An approximately-10-mm-long midline incision was made in the shaved and cleaned abdominal wall. The urinary bladder was gently freed from adhering tissues, emptied and then cannulated via an incision in the bladder body, using a polyethylene cannula (0.58-mm internal diameter, 0.96-mm external diameter) which was permanently sutured with silk thread. The cannula was exteriorised through a subcutaneous tunnel in the retroscapular area, where it was connected to a plastic adapter in order to avoid the risk of removal by the animal. For drug testing, the rats were utilised one day after implantation.
On the day of the experiment, the rats were placed in modified Bollman cages, i.e. restraining cages that were large enough to permit the rats to adopt a normal crouched posture, but narrow enough to prevent turning around. […] The intraluminal-pressure signal during infusion of saline into the bladder was continuously recorded on a polygraph (Rectigraph-8K San-ei with BM614/2 amplifier from Biomedica Mangoni) and, from the cystometrogram, two urodynamic parameters were evaluated: bladder volume capacity (BVC) and micturition pressure (MP). […] Basal BVC and MP values were evaluated as mean of the values observed in the cystometrograms recorded in an initial period of 30-60 minutes. […] The bladder infusion restarted and changes in BVC and MP were evaluated from the mean values obtained in the cystometrograms observed during 1, 2, 3, 4 and 5 hours after treatment. […]
All data were expressed as mean±standard error. Time-course data were analysed by S.A.S./STAT software, version 6.12. The difference between vehicle and active-treatment effect was evaluated by: General Linear Model Procedure—Repeated Measures Analysis of Variance: Univariate test of Hypotheses for within Subject Effects—Analysis of Variance of Contrast Variables. […]

With CCN(CC)CC#CCOC(=O)C(O)(c1ccccc1)C1CCCCC1 (stereo not drawn) [Oxybutynin, oxybutynin, reference compound] the ED50 (anaesthetised rats; intravenous administration, urethane-anaesthetised rats, read-out: ED50 frequency (extrapolated dose inducing a reduction of the number of contractions >30% in 50% of treated rats)) was greater than 10 mg/kg, the ED50 (anaesthetised rats; intravenous administration, n.a. = not active, no significant reduction of the height of the peaks, read-out: ED50 amplitude (extrapolated dose inducing a 30% reduction of amplitude of the contractions in 50% of treated rats)) was 0.24 mg/kg and the “ED10 min (extrapolated dose inducing 10 minutes of disappearance of the contractions)” value (anaesthetised rats; intravenous administration, urethane-anaesthetised rats) was 7.77 mg/kg. For the same compound, the “cessation of bladder contractions (in words)” value (anaesthetised rats; intravenous, anaesthetised rats) was “does not cause cessation of bladder contractions”, the “effect on bladder volume capacity (BVC)” value (conscious rats) was “slight, not-significant increase” and the “effect on micturition pressure (MP)” value (conscious rats) was “greatly reduced”.
